Test results as given in patent US7704993B2, “Benzazepine derivatives and methods of prophylaxis or treatment of 5ht2c receptor associated diseases” (Arena Pharmaceuticals, Inc., priority 2003, dated 2010).

Columns and labels:
human 5HT2C receptor = target: T1, human 5HT2C receptor (Homo sapiens, UniProt P28335); assay: Intracellular IP3 Accumulation Assay; assay type: cell-based; conditions: HEK293 cells transfected with human 5HT2C receptor cDNA; read-out: 5HT2C (IC50) IP Accumulation Assay
T1 construct: expressed in transfected cells; host or cells: HEK293 cells, transient transfection with lipofectamine
T1 sequence (P28335 33-458): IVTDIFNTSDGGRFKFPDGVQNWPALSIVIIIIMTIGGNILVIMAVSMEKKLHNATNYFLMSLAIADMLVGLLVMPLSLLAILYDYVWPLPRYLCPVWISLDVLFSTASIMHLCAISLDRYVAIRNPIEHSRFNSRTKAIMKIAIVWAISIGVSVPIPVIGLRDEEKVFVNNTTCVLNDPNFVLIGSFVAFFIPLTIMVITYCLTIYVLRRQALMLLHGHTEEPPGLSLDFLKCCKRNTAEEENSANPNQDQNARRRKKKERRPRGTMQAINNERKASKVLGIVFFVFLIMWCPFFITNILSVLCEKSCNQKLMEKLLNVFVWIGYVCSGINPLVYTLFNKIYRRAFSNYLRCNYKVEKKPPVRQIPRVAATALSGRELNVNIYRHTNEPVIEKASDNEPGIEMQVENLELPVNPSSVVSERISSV
Experimental: Intracellular IP3 Accumulation Assay:
HEK293 cells were transfected in 15 cm sterile dishes with or without (control) 16 ug of human 5HT2C receptor cDNA [for example see, Saltzman, A. G., et al. Biochem. Biophys. Res. Commun. 181, 1469-1478 (1991)] using 25 ul of lipofectamine. Cells were then incubated for 3-4 hours at 37° C./5% CO2 and then transfection media was removed and replaced with 100 ul of DMEM. Cells were then plated onto 100 cm sterile dishes. The next day cells were plated into 96 well PDL microtiter plates at a density of 55 K/0.2 ml. Six hours latter, media was exchanged with [^3H]inositol (0.25 uCi/well) in inositol free DMEM and plates were incubated at 37° C./5% CO2 overnight. The next day, wells were aspirated and 200 ul of DMEM containing test compound, 10 uM pargyline, and 10 mM LiCl was added to appropriate wells. Plates were then incubated at 37° C./5% CO2 for three hours followed aspiration and by addition of fresh ice cold stop solution (1M KOH, 19 mM Na-borate, 3.8 mM EDTA) to each well. Plates were kept on ice for 5-10 min and the wells were neutralized by addition of 200 ul of fresh ice cold neutralization solution (7.5% HCl). Plates were then frozen until further processing is desired. The lysate was then transferred into 1.5 ml Eppendorf tubes and 1 ml of chloroform/methanol (1:2) was added/tube. […]

[1] = tested on: amyloid precursor protein (APPs) secretion / Aβ production; conditions: guinea pigs, repeat administration; cited from earlier work

Row | Structure (SMILES) | IC50 (human 5HT2C receptor) [nM] | amyloid precursor protein (APPs) secretion [1] | levels of Aβ production in vivo [1]
1 | CC1CNCCc2c(Cl)cc(Cl)cc21 (racemic) [Compound 1, (R,S) 6,8-Dichloro-1-methyl-2,3,4,5-tetrahydro-1H-3-benzazepine] | 11.7 | – | –
2 | CC1CNCCc2ccc(Cl)c(F)c21 (racemic) [Compound 3, (R,S) 8-Chloro-9-fluoro-1-methyl-2,3,4,5-tetrahydro-1H-3-benzazepine] | 24.5 | – | –
3 | C[C@H](N)Cc1cccc(C(F)(F)F)c1 [dexnorfenfluramine (DEXNOR), dexnorfenfluramine] | – | stimulated | reducing
